Measured values published in patent US20160264593A1 (priority 2013, published 2016).
Values belong to the compound of their own block, whether it stands above or below them.

Assay: in vivo
Set-up: species or system SD rats
Conditions: rat, 1.4 mg/kg; for Kp: AUC(0-t) ratio of liver over plasma
Description: 113 was dissolved in 4% NaHCO3 in saline for IV administration. The detailed procedure of dosing solution preparation was presented in Appendix I.
15 animals were placed on the study. The animals in IV arm were free access to food and water. For PO dose group, the animals were fasted overnight prior to dosing and the food was resumed 4 hours postdose.
One extra animal was used for blank liver, brain and plasma generation (5 mL per animal). The resulting blank liver, brain and plasma were then applied to the development of bioanalytical method and sample bioanalysis for the entire study.
The IV injection was conducted via foot dorsal vein. PO via oral gavage.
Blood collection: The animal is restrained manually. Approximately 200 μL of blood/time point is collected into sodium heparin tube via cardiac puncture for terminal bleeding (anesthetized under carbon dioxide). Blood sample will be put on ice and centrifuged to obtain plasma sample (2000 g, 5 min under 4° C.) within 10 minutes.
Liver collection: The animal will be euthanized with carbon dioxide inhalation. Open abdominal cavity with scissor to expose internal organs. Hold the carcass in an upright position and allow the organs to fall forward. Cut the connective tissues and remove the organs. Then the organs are rinsed with cold saline, dried on filtrate paper, placed into a screw-top tube and weighed, snap frozen by placing into dry-ice immediately.
Brain collection: Make a mid-line incision in the animals scalp and retract the skin. Using small bone cutters and rongeurs, remove the skull overlying the brain. Remove the brain using a spatula and rinse with cold saline, dried on filtrate paper, placed into a screw-top tube and weighed, snap frozen by placing into dry-ice immediately. Brain tissue will be homogenized for 2 min with 3 volumes (v/w) of homogenizing solution (PBS pH 7.4) right before analysis. Plasma, brain and liver samples were stored at approximately −80° C. until analysis. The backup samples will be discarded after three weeks after in-life completion unless requested. The unused dosing solutions will be discarded within three weeks after completion of the study.
The PK parameters were determined by non-compartmental model of non-compartmental analysis tool, Pharsight Phoenix WinNonlin® 6.2 software.
Concentration data within 80%-120% of LLOQ was considered within normal instrumental variation and presented in the results.
Time points were automatic selected by “best fit” model for terminal half life estimation as the first option. Manual selection was applied when “best fit” could not well define the terminal phase.

[1] = male, Sprague-Dawley (SD), iv, 6 hr
[2] = male, SD, iv, Liver-plasma concentration ratio of 113
[3] = male, SD, iv, liver concentration of 113
[4] = male, SD, iv, plasma concentration of 113
[5] = male, SD, po, plasma concentration of 113
[6] = male, Sprague-Dawley, iv, Brain-plasma concentration ratio of 113
[7] = male, Sprague-Dawley, iv, brain concentration of 113

SMILES: CN1CCN(C(=O)C2C3CCC(O3)C2C(=O)O)CC1 (stereo not drawn) [Compound 100, 3-(4-methylpiperazine-1-carbonyl)-7-oxa-bicyclo[2,2,1]-heptane-2-carboxylic acid]
AUC(0-inf) (male, Sprague-Dawley (SD), iv): 2830 ng·h/mL | AUC(0-t) (male, Sprague-Dawley (SD), iv): 2800 ng·h/mL | AUC(0-t) of 100 (male, Sprague-Dawley (SD), iv): 703 ng·h/mL | AUC(0-∞) of 100 (male, Sprague-Dawley (SD), iv): 707 ng·h/mL | Tmax (male, Sprague-Dawley (SD), iv): 15 min | Tmax of 100 (male, Sprague-Dawley (SD), iv): 15 min | Liver-plasma concentration ratio of 100 [1]: 7.32 | plasma concentration of 100 [1]: 3.25 ng/mL | AUC(0-last) of 100 in plasma (male, Sprague-Dawley, iv): 703 ng·h/mL | AUC(0-t) ratio of liver over plasma, 100 (male, Sprague-Dawley, iv): 399 | AUC(0-∞) of 100 in plasma (male, Sprague-Dawley, iv): 707 ng·h/mL | Cmax of 100 in liver (male, Sprague-Dawley, iv): 1895 ng/g | Cmax of 100 in plasma (male, Sprague-Dawley, iv): 554 ng/mL | Tmax of 100 in liver (male, Sprague-Dawley, iv): 15 min | Tmax of 100 in plasma (male, Sprague-Dawley, iv): 15 min | plasma concentration of 100 (male, Sprague-Dawley, iv, 6 h): 3.25 ng/mL | AUC(0-last) of 100 in liver (iv): 2804 ng·h/g | AUC(0-∞) of 100 in liver (iv): 2834 ng·h/g | AUClast-liver/AUClast-plasma of 100 (iv): 399

Liver-plasma concentration ratio of 113 (male, SD, iv, 1 h): 1.18 | AUC(0-t) (male, SD, iv, AUClast of 113 in plasma): 155 ng·h/mL | Kp at 0.25 h [2]: 0.321 | Kp at 1 h [2]: 1.35 | concentration at 0.25 h [3]: 55.5 ng/g | concentration at 1 h [3]: 14.6 ng/g | concentration at 0.25 h [4]: 173 ng/mL | concentration at 1 h [4]: 10.8 ng/mL | plasma concentration of 113 (male, SD, po, 2 h): 2.15 ng/mL | concentration at 0.25 h [5]: 18.3 ng/mL | concentration at 1 h [5]: 4.61 ng/mL | concentration at 2 h [5]: 2.15 ng/mL | Cmax of 113 (male, Sprague-Dawley (SD), iv): 90.4 ng/mL | Tmax (male, Sprague-Dawley (SD), iv): 15 min | Cmax (male, Sprague-Dawley (SD), iv, Cmax of 113): 46.2 ng/mL | F of 113 (male, Sprague-Dawley (SD), po): 10.1% | Tmax (male, Sprague-Dawley (SD), po): 15 min | AUC(0-t) (male, Sprague-Dawley (SD), po, AUC(0-t) of 113): 15.7 ng·h/mL | Cmax (male, Sprague-Dawley (SD), po, Cmax of 113): 17.7 ng/mL | bioavailability (male, Sprague-Dawley): 10.1% | Tmax (male, Sprague-Dawley, iv): 15 min | Kp (male, Sprague-Dawley, iv, 113): 18.1 | Kp (male, Sprague-Dawley, iv, 113 (printed in the brain paragraph)): 30.6 | Kp at 0.25 h [6]: 0.498 | Kp at 1 h [6]: 0.537 | Cmax (male, Sprague-Dawley, iv, Cmax of 113 in brain): 90.4 ng/g | Cmax (male, Sprague-Dawley, iv, Cmax of 113 in liver): 46.2 ng/g | Kp at 1 h (male, Sprague-Dawley, iv, Liver-plasma concentration ratio of 113): 1.27 | concentration at 0.25 h [7]: 86.2 ng/g | concentration at 1 h [7]: 5.8 ng/g | Tmax (male, Sprague-Dawley, po): 15 min | AUC(0-t) (male, Sprague-Dawley, po, AUClast of 113 in plasma): 15.7 ng·h/mL | Cmax (male, Sprague-Dawley, po, Cmax of 113 in plasma): 17.7 ng/mL | AUC(0-last) of 113 in brain (iv): 47.5 ng·h/g | AUC(0-last) of 113 in liver (iv): 28.1 ng·h/g
SMILES: CN1CCN(C(=O)C2C(C(=O)OCC(Cl)(Cl)Cl)[C@H]3CC[C@@H]2O3)CC1 (stereo partly drawn) [Compound 113]
